Patent US12187696B2, “Urea motif containing compounds and derivatives thereof as antibacterial drugs” (Technische Universität München, priority 2016, dated 2025)

Test system: S. aureus DSM 4910 (NCTC 8325) biofilm
Assay: Minimum biofilm eradication concentration (MBEC) assay
Assay type: cell-based
Description: To each well of a flat-bottomed 96-well plate (BD Biosciences, BD 351172) 200 μL of overnight culture of bacteria diluted 1:100 in media is added. Plates are incubated for 24 hours at 37° C. to establish biofilms. After 24 hours, the wells are carefully emptied by inverting the plate and gently shaking. A pre-mixed solution of media and compound stock solution is added to each well and plates are incubated at 37° C. […] 100 μL of supernatant from each well are transferred to a fresh 96-well flat bottomed plate and the OD at 595 nm is measured using a plate reader (POLARstar Omega, BMG Labtech). Concentrations of compound yielding a regrown OD of less than 0.1 correspond to the MBEC. Six replicates are completed for each concentration of compound as well as positive and negative controls. […] DMSO was used as negative control compound, Oxacillin was used as positive control compound. Levels of crystal violet retained were measured spectrophotometrically at an OD of 595 nm. Concentrations of compound yielding a regrown OD of less than 0.1 correspond to the MBEC. Six replicates are completed for each concentration of compound as well as controls. […] Levels of crystal violet retained were measured spectrophotometrically at an OD of 595 nm. […]

With `O=C(Nc1ccc2c(c1)OC(F)(F)O2)Nc1ccc(Cl)c(C(F)(F)F)c1` [Example 4, 1-(4-Chloro-3-(trifluoromethyl)phenyl)-3-(2,2-difluorobenzo[d][1,3]dioxol-5-yl)urea] the biofilm eradication effect (S. aureus DSM 4910, after 20 h of compound treatment) was “strongest effect” and the biofilm eradication effect (S. aureus DSM 4910, after 70 h of compound treatment) was “most potent effects”.
